Our source for the GI50 and TGI values is PubChem BioAssay (NCI).

Each structure is given as a SMILES string.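 Assay format: 96-well plates, 48-hour exposure. GI50 = concentration required for 50% inhibition of growth. TGI marks complete inhibition of growth.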

Test systems include UACC-257 melanoma; A498 renal; HT29 colon; HOP-92 NSCLC; K-562 leukemia; UO-31 renal; NCI-H23 lung; ACHN renal; NCI-H522 lung; NCI-H226 lung.
Common to all, as to assay: inhibition of tumour cell growth, NCI panel, 48 h

With `CO/C=C/C(=O)c1cc2cnc3c(=N)cc(NC(=O)C(C)C)c([nH]1)c23`, the GI50 with UACC-257 melanoma was 0.0901 µM; with A498 renal, 0.1 µM; in the test with HT29 colon, 0.0801 µM; in the test on HOP-92 NSCLC it was 0.00796 µM; in the test with K-562 leukemia, 0.117 µM; in the test with UO-31 renal, 0.0169 µM. The GI50 with NCI-H23 lung is 0.0432 µM; with ACHN renal it was 0.1 µM; in the test with NCI-H522 lung, 0.969 µM; in the test on NCI-H226 lung it was 0.106 µM. Moreover, the TGI with UACC-257 melanoma was 0.862 µM; in the test with A498 renal, 0.602 µM; in the test with HT29 colon it was 0.721 µM; with HOP-92 NSCLC, 0.0456 µM; with K-562 leukemia it was 17.4 µM; in the test on UO-31 renal, 0.323 µM. For the same compound, the TGI with NCI-H23 lung came out at 1.83 µM; with ACHN renal it was 1.67 µM; with NCI-H522 lung, 11 µM; in the test on NCI-H226 lung, 1.26 µM.

In the case of `COC(=O)C(=O)C(C(=O)C(=O)Nc1cccc(C(C)=O)c1)c1nc2ccc([N+](=O)[O-])cc2[nH]c1=O` (centres undefined), the TGI in the test with UACC-257 melanoma, in the test on A498 renal, in the test on HT29 colon, with HOP-92 NSCLC, in the test with K-562 leukemia and in the test on UO-31 renal was greater than 100 µM in each case. For the same compound, the TGI in the test on NCI-H23 lung, with ACHN renal, in the test on NCI-H522 lung and in the test with NCI-H226 lung was greater than 100 µM in each case.

`CN1CCC(COc2cnc(-c3cccc(Cn4nc(-c5cccc(C#N)c5)ccc4=O)c3)nc2)CC1`: the GI50 with UACC-257 melanoma was 1.81 µM; with A498 renal it was 7.2 µM; in the test on HT29 colon it was 2.04 µM; with HOP-92 NSCLC, 1.02 µM; in the test with K-562 leukemia, 1.74 µM; in the test with UO-31 renal it was 2.26 µM. The GI50 with NCI-H23 lung is 4.93 µM; in the test with ACHN renal, 2.38 µM; in the test on NCI-H522 lung it was 2.27 µM; in the test on NCI-H226 lung, 7.18 µM. Besides, the TGI in the test with UACC-257 melanoma worked out at 3.52 µM; in the test on A498 renal, 20.6 µM; in the test with HT29 colon it was 4.66 µM; in the test with HOP-92 NSCLC, 12.6 µM; in the test on K-562 leukemia it was 4.32 µM; in the test with UO-31 renal it was 5.79 µM. Besides, the TGI turned out to be 21.6 µM in the test with NCI-H23 lung, 5.78 µM with ACHN renal, 5.06 µM in the test with NCI-H522 lung and 24.8 µM with NCI-H226 lung.

For the compound `Cc1cccc(-c2[nH]ncc2-c2ccc3ncccc3n2)n1`, the GI50 with UACC-257 melanoma is greater than 21.3 µM; in the test on A498 renal, greater than 14.1 µM; in the test on HT29 colon, 12.1 µM; in the test with HOP-92 NSCLC it was 10 µM; in the test on K-562 leukemia, greater than 25 µM; with UO-31 renal it was 6.17 µM. The GI50 in the test with NCI-H23 lung is 14.2 µM; with ACHN renal it was 7.1 µM; in the test with NCI-H522 lung it was greater than 25 µM; in the test with NCI-H226 lung, 9.92 µM. Moreover, the TGI with UACC-257 melanoma, with A498 renal, in the test with HT29 colon, in the test on HOP-92 NSCLC, in the test on K-562 leukemia and in the test with UO-31 renal was greater than 25 µM each time. In addition, the TGI with NCI-H23 lung, in the test with ACHN renal, with NCI-H522 lung and with NCI-H226 lung was greater than 25 µM in each case.

As to `CN(C)c1ccc(/C=C/c2ccnc3c(O)cccc23)cc1`, the GI50 with UACC-257 melanoma is 0.409 µM; in the test with A498 renal, 3.39 µM; in the test on HT29 colon, 11.7 µM; with HOP-92 NSCLC, 0.211 µM; in the test on K-562 leukemia, 0.364 µM; with UO-31 renal it was 0.247 µM. Also, the GI50 is 0.511 µM in the test with NCI-H23 lung, 0.337 µM with ACHN renal, 0.257 µM with NCI-H522 lung and 2.31 µM with NCI-H226 lung. In addition, the TGI is 3.08 µM in the test with UACC-257 melanoma; greater than 100 µM in the test on A498 renal; greater than 100 µM with HT29 colon; greater than 100 µM in the test on K-562 leukemia; greater than 22.7 µM with UO-31 renal; greater than 100 µM with NCI-H23 lung. Moreover, the TGI was greater than 100 µM in the test with ACHN renal, 1.72 µM with NCI-H522 lung and greater than 26.8 µM in the test on NCI-H226 lung.

Regarding `CC(C)(C)N1CCC1CN` (centres undefined), the GI50 in the test on UACC-257 melanoma, with A498 renal, in the test on HT29 colon, with HOP-92 NSCLC, in the test with K-562 leukemia and in the test on UO-31 renal was greater than 100 µM each time. Besides, the GI50 with NCI-H23 lung, with ACHN renal, with NCI-H522 lung and in the test on NCI-H226 lung was greater than 100 µM each time. The TGI in the test on UACC-257 melanoma, in the test with A498 renal, in the test with HT29 colon, in the test on HOP-92 NSCLC, in the test with K-562 leukemia and in the test with UO-31 renal was greater than 100 µM throughout. Besides, the TGI in the test on NCI-H23 lung, in the test with ACHN renal, with NCI-H522 lung and with NCI-H226 lung was greater than 100 µM in each case.

As to `NS(=O)(=O)OCC1OC(n2cnc3cncnc32)C(O)C1O` (centres undefined), the GI50 was 0.0431 µM in the test on UACC-257 melanoma; 0.0216 µM with A498 renal; 0.0275 µM in the test on HT29 colon; 0.0183 µM in the test on HOP-92 NSCLC; 0.0333 µM with K-562 leukemia; 0.0256 µM in the test on UO-31 renal. Moreover, the GI50 in the test on NCI-H23 lung is 0.0175 µM; in the test on ACHN renal, 0.0288 µM; with NCI-H522 lung, less than 0.01 µM; with NCI-H226 lung it was 0.0344 µM. The TGI with UACC-257 melanoma is 0.244 µM; in the test on A498 renal, 0.0821 µM; in the test with HT29 colon it was 0.105 µM; in the test with HOP-92 NSCLC it was 0.0619 µM; in the test with K-562 leukemia it was 1.22 µM; in the test with UO-31 renal, 0.106 µM. In addition, the TGI in the test with NCI-H23 lung was found to be 0.0525 µM; in the test with ACHN renal it was 0.0945 µM; in the test with NCI-H522 lung it was 0.0232 µM; with NCI-H226 lung it was 0.222 µM.

As to `COc1c(O)c(OC)c2oc(-c3ccc(O)c(O)c3)c(OC)c(=O)c2c1O`, the TGI was greater than 100 µM in the test with UACC-257 melanoma; greater than 100 µM in the test on A498 renal; greater than 100 µM with HT29 colon; 66 µM with HOP-92 NSCLC; greater than 100 µM in the test with K-562 leukemia; 89.8 µM in the test on UO-31 renal. Besides, the TGI in the test with NCI-H23 lung is greater than 100 µM; with ACHN renal, greater than 100 µM; in the test on NCI-H522 lung it was 33.4 µM; with NCI-H226 lung, greater than 100 µM.
